# Assay results taken from patent US11274097B2, “2-(het)aryl-substituted condensed bicyclic heterocycle derivatives as pest control agents” (BAYER CROPSCIENCE AKTIENGESELLSCHAFT, priority 2014, dated 2022).
# How the values were obtained:
# Format in all cases: in vivo
# Spodoptera frugiperda = Spodoptera frugiperda spray test (SPODFR); details: application rate 500 g/ha; maize leaf discs; after 7 days
# Experimental: Spodoptera frugiperda—Spray Test (SPODFR)
# Solvent: 78.0 parts by weight of acetone • • 1.5 parts by weight of dimethylformamide
# (§1) Emulsifier: alkylaryl polyglycol ether
# To produce an appropriate active ingredient formulation, 1 part by weight of active ingredient is dissolved using the stated parts by weight of solvent and made up with water containing an emulsifier concentration of 1000 ppm until the desired concentration is attained. To produce further test concentrations, the preparation is diluted with emulsifier-containing water.
# Leaf discs of maize (Zea mays) are sprayed with an active ingredient formulation of the desired concentration and, after drying, populated with caterpillars of the armyworm (Spodoptera frugiperda).
# After 7 days, the efficacy in % is determined. 100% means that all the caterpillars have been killed; 0% means that no caterpillars have been killed.
# Myzus persicae [1] = assay: Myzus persicae contact test (MYZUPE c); details: 2.4 g/ha, 14 dat
# Experimental: Myzus persicae—Contact Test (MYZUPE c)
# (§2) Solvent: 7 parts by weight of dimethylformamide
# Emulsifier: alkylaryl poly glycol ether
# (§3) To produce an appropriate active ingredient formulation, 1 part by weight of active ingredient is dissolved using the stated parts by weight of solvent and made up with water containing an emulsifier concentration of 1000 ppm until the desired concentration is attained. To produce further test concentrations, the preparation is diluted with emulsifier-containing water. In the event that addition of ammonium salts or/and penetrants (rapeseed oil methyl ester) is required, these are each pipetted in a concentration of 1000 ppm after the finished formulation solution has been diluted.
# One-leaved bell pepper plants (Capsicum annuum) heavily infested by the green peach aphid (Myzus persicae) are treated by spraying the underside of the leaf with the active ingredient formulation in the desired concentration.
# (§4) After the desired time, the kill in % is determined. 100% means that all the aphids have been killed and 0% means that none of the aphids have been killed.
# Nephotettix cincticeps = Nephotettix cincticeps test (NEPHCI); details: 0.16 ppm
# Experimental: Nephotettix cincticeps Test (NEPHCI)
# as §2, §1, §3
# Rice plants (Oryza sativa, var. Balilla) are treated by spraying with the active ingredient formulation in the desired concentration and then populated with larvae of the green rice leafhopper (Nephotettix cincticeps).
# After the desired time, the kill in % is determined. 100% means that all leafhoppers have been killed; 0% means that none of the leafhoppers have been killed.
# Aphis gossypii [2] = assay: Aphis gossypii translaminar test (APHIGO t); details: 2.4 g/ha, 7 dat
# Experimental: Aphis gossypii—Translaminar Test (APHIGO t)
# as §2, §1, §3
# One-leaved cotton plants (Gossypium hirsutum) heavily infested by the cotton aphid (Aphis gossypii) are treated by spraying the top side of the leaf with the active ingredient formulation in the desired concentration.
# as §4
# Lucilia cuprina = Lucilia cuprina test (LUCICU); details: application rate 100 ppm; L1 larvae; after 2 days
# Experimental: Lucilia cuprina Test (LUCICU) Solvent: dimethyl sulphoxide To produce an appropriate active ingredient formulation, 10 mg of active ingredient are mixed with 0.5 ml of dimethyl sulphoxide, and the concentrate is diluted with water to the desired concentration. About 20 L1 larvae of the Australian sheep blowfly (Lucilia cuprina) are transferred into a test vessel containing minced horsemeat and the active ingredient preparation of the desired concentration. After 2 days, the kill in % is determined. 100% means that all the larvae have been killed; 0% means that none of the larvae have been killed.
# Aphis gossypii [3] = assay: Aphis gossypii contact test (APHIGO c); details: 2.4 g/ha, 7 dat
# Experimental: Aphis gossypii—Contact Test (APHIGO c)
# as §2, §1, §3
# One-leaved cotton plants (Gossypium hirsutum) heavily infested by the cotton aphid (Aphis gossypii) are treated by spraying the underside of the leaf with the active ingredient formulation in the desired concentration.
# as §4
# Myzus persicae [4] = assay: Myzus persicae spray test (MYZUPE), Chinese cabbage leaf discs; details: application rate 500 g/ha, after 6 days
# In short: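 Leaf discs of Chinese cabbage carrying all aphid stages sprayed with compound formulated in acetone/DMF and diluted in water with 1000 ppm alkylaryl polyglycol ether emulsifier. Mortality scored after 6 days as % efficacy (100% = all aphids killed, 0% = none).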
structure (smiles),measurement,setting,value
CCS(=O)(=O)c1cc(C(F)(F)F)cnc1-c1nc2cc(C(F)(F)F)ncc2n1C [Example I-21],efficacy,Spodoptera frugiperda,100%
same,% efficacy,Myzus persicae [1],85%
same,% efficacy,Nephotettix cincticeps; 14 dat,90%
same,% efficacy,Nephotettix cincticeps; 21 dat,95%
same,% efficacy,Nephotettix cincticeps; 34 dat,100%
same,% efficacy,Aphis gossypii [2],65%
same,efficacy (kill),Lucilia cuprina,100%
same,% efficacy,Aphis gossypii [3],98%
same,efficacy,Myzus persicae [4],90%
